Results published in article PMC11481179, “Development and Application of Reversible and Irreversible Covalent Probes for Human and Mouse Cathepsin‐K Activity Detection, Revealing Nuclear Activity” (Advanced Science, 2024).

Biological target: CTSS (Homo sapiens, UniProt P25774)
Assay: Recombinant cathepsin labeling by ABPs, in-gel fluorescence
Type: binding
Conditions: increasing probe concentrations, 1 h
Method: The ABPs were tested for binding to recombinant CTSK compared to the closely related CTSB, CTSL, and CTSS, which are highly abundant and active in most biological samples. Using the in‐gel fluorescent analysis that detects the stable enzyme‐probe complex, active CTSK was labeled with each of the four probes, and significant selectivity was found in three probes GD32, GD37, and GD42 (Figure 1a). […] However, the minimum amount of active CTSK the remaining probes detected was much higher, ranging from 8 to 70 ngs, (Figure 1b).
Figure 1 In vitro evaluation of CTSK targeted compounds. a) Labeling of recombinant cathepsins by ABPs. Recombinant cathepsins were treated with increasing concentrations of ABPs for 1 h. Samples were separated by SDS‐PAGE and scanned for fluorescence by a Typhoon scanner at 635/670 nm. All probes show dose‐dependent binding to the CTSK, and have lower affinity to CTSS except GD36, b) CTSK [0.5–280 ng] was labeled with the indicated ABPs [5 µM]. Incubations were performed for 1 h at 37 °C, at pH 5.5. Samples were analyzed as described in (a). c) Recombinant cathepsins B, K, L, and S [0.5 µM] were first treated with the indicated concentrations of the inhibitor GD30 or vehicle for 1 h followed by incubation with a pan cathepsin probe GB123 [1 µM] for 1 h. Samples were analyzed as described in (a). d) Quantitative analysis of CTSK inhibition by GD30 presented in (d), data represent mean values ± standard error, n = 3. e) IC50 plot of GD30 inhibition of CTSK activity. […]
emission wavelengths of 370 and 460 nm, respectively. Cathepsin concentrations in the assay were 0.4 nM (CTSK) or 5 nM (CTSS, CTSB, and CTSL). […] For irreversible inhibitors, reaction data were fitted to the one-phase association formula in GraphPad Prism 9 software: Y=Y0 + (Plateau-Y0)*(1-exp(-K*X)) where in this case Y0 and Y represent fluorescence signal at times 0 and t, respectively, K represent the observed reaction rate kobs and X the inhibitor concentration. […]
reaction was stopped and samples were analyzed as described above. […]

CTSS, sequence (P25774 115-331): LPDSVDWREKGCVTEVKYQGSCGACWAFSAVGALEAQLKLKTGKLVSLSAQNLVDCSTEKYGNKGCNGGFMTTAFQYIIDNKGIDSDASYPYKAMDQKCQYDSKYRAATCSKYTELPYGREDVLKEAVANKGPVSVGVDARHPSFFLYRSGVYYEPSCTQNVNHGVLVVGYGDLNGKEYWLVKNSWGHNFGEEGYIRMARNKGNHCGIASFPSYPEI

SMILES	labeling of CTSS relative to CTSK
C#CCNC(=O)[C@H](CC(C)C)N[C@@H](c1ccc(-c2ccc(S(=O)(=O)CCNC(=O)CCCCC[N+]3=C(/C=C/C=C/C=C4/N(C)c5ccc(S(=O)(=O)O)cc5C4(C)C)C(C)(C)c4cc(S(=O)(=O)O)ccc43)cc2)cc1)C(F)(F)F [GD32]	only labeled CTSS at higher concentrations
CC(C)C[C@H](N[C@@H](c1ccc(-c2ccc(S(=O)(=O)CCNC(=O)CCCCC[N+]3=C(/C=C/C=C/C=C4/N(C)c5ccc(S(=O)(=O)O)cc5C4(C)C)C(C)(C)c4cc(S(=O)(=O)O)ccc43)cc2)cc1)C(F)(F)F)C(=O)NC1(C#N)CC1 [GD37]	only labeled CTSS at higher concentrations
